Drawing on patent US11021468B2, “TGF-ß inhibitors” (Rigel Pharmaceuticals, Inc., priority 2015, dated 2021), this text covers IC50 for six compounds.

One assay has as its system TGF-β. Kind of assay: AlphaScreen SureFire SMAD3 (p-Ser423/425) assay, TGF-β-stimulated (TGF-β pSMAD (MPC-11)). It is filed as cell-based. The note with it: Mus musculus, MPC-11, inhibition of TGF-β signaling, p-SMAD-3 (Ser423/425). From the text: (§1) Example 2: AlphaScreen® SureFire® SMAD3 (p-Ser423/425) Assay
(§2) The p-SMAD-3 (Ser423/425) SureFire® assay has been designed to measure the phosphorylation of endogenous cellular p-SMAD-3 (Ser423/425) in cell lysates and is a system for the screening of both modulators of receptor activation (e.g. agonists and antagonists) as well as agents acting intracellularly, such as small molecule inhibitors of upstream events. The assay will measure p-SMAD-3 (Ser423/425) activation by either cloned or endogenous receptors, and can be applied to primary cells.
(§3) P-SMAD-3 (Ser423/425) SureFire® Assay Protocols
(§4) 96-well Assay Protocol for 293FT and RMS13 adherent cells can be carried out manually or in high throughput with liquid handling robots.
(§5) The cells (80 μL of cells for 96 well plates) were plated in collagen coated tissue culture plates in RPMI or FreeStyle medium (Invitrogen) and incubated overnight. For manual analysis, 6 plates for GDF8, 6 plates for TGFβ, and optionally 6 plates for Alk5ca(ALK5 constitutively active) were used.
(§6) The compound dilution plates were prepared as follows: 12 μL of DMSO was transferred into first column of 96-well plate, and 16 μL of DMSO was transferred into columns 2-12 of the 96-well plate. 12 μL of compound solution was transferred into first column of the DMSO-containing 96-well plate. Three-fold dilution was performed up to column 10 of the DMSO-containing 96-well plate.
(§7) The plate containing cells were treated with compounds for about 10 minutes, and then ligand was added. GDF8 or TGFb was added to plates to stimulate. 293FL cells were stimulated for 90 minutes at 37° C.; and RMS13 cells were stimulated for 60 minutes at 37° C. The medium was then removed from the cells, and 1× Lysis Buffer (about 25 μL) was added and the plate was gently agitated on plate shaker for 5-10 minutes.
(§8) The lysate (5 μL) was then placed into 384-well shallow plates avoiding the generation of bubbles. To this, the Reaction Buffer+Activation Buffer+AlphaScreen® Acceptor beads mixture (5 μL) was added. The plate was sealed with adhesive cover and shielded from light (e.g., with metal foil), and agitated gently on plate shaker for 2 hours at room temperature.
(§9) Dilution buffer+AlphaScreen® Donor beads (2 μL) was then added, and the plate was intubated on the plate shaker for an additional 1½ hours. After completion, the plate was read on Synergy-4 or Enspire plate reader, using AlphaScreen® pSMAD3® settings.
(§10) Representative results for inhibition of GDF8 (data=GDF pSMAD (MPC11) (μM)) and TGF-β (data=TGF-β pSMAD (MPC-11) (μM)) signaling are shown in Table 1: […]
In general terms: Bead proximity is the source of the signal in Alpha formats.

A further assay has as its system GDF8. The experiment in a line: AlphaScreen SureFire SMAD3 (p-Ser423/425) assay, GDF8-stimulated (GDF pSMAD (MPC11)). It is filed as cell-based. The note with it: Mus musculus, MPC-11, inhibition of GDF8 signaling, p-SMAD-3 (Ser423/425).
Excerpt: as §1, §2, §3, §4, §5, §6, §7, §8, §9, §10

As a reminder, the IC50 is the concentration that inhibits the measured activity by half. As for `Fc1ccc(-c2nc(Nc3cnc4[nH]ncc4c3)c3cc[nH]c3n2)cc1` [Compound 50, N-(2-(4-Fluorophenyl)-7H-pyrrolo[2,3-d]pyrimidin-4-yl)-1H-pyrazolo[3,4-b]pyridin-5-amine], the figures for the half-inhibitory concentration (IC50) in the assay with TGF-β and with GDF8 were 3490 nM and 1050 nM, respectively.

Turning to `Fc1cc2[nH]ncc2cc1Nc1ccnc(-c2ccccc2F)n1` [Compound 23, 6-Fluoro-N-(2-(2-fluorophenyl)pyrimidin-4-yl)-1H-indazol-5-amine], the IC50 is 1320 nM with TGF-β and 257 nM in the assay on GDF8.

As for `Fc1cc(F)cc(-c2nccc(Nc3ccc4[nH]ncc4c3)n2)c1` [Compound 27, N-(2-(3,5-Difluorophenyl)pyrimidin-4-yl)-1H-indazol-5-amine], the IC50 in the assay with TGF-β is 2200 nM; in the assay with GDF8, 287 nM.

As for `Cc1cc(F)ccc1-c1nccc(Nc2ccc3[nH]ncc3c2)n1` [Compound 42, N-(2-(4-Fluoro-2-methylphenyl)pyrimidin-4-yl)-1H-indazol-5-amine], the IC50 amounted to 53.3 nM with TGF-β and 7.6 nM in the assay with GDF8.

Consider `Fc1cccc(-c2nccc(Nc3ccc4[nH]ncc4c3)n2)c1` [Compound 18, N-(2-(3-Fluorophenyl)pyrimidin-4-yl)-1H-indazol-5-amine], for which the figures for the IC50 in the assay with TGF-β and with GDF8 were 1360 nM and 154 nM, respectively.

Turning to `Cc1cnc(-c2ccccc2F)nc1Nc1ccc2[nH]ncc2c1` [Compound 38, N-(2-(2-Fluorophenyl)-5-methylpyrimidin-4-yl)-1H-indazol-5-amine], the figures for the IC50 with TGF-β and in the assay with GDF8 were 339 nM and 125 nM, respectively.
